Data reported in ChEMBL document CHEMBL4507267 (2021).

Experiments:
[1] = target: Activin receptor type-2B (Homo sapiens) (UniProt Q13705); conditions: Compound concentration 1000.0 nM
[2] = target: 3-phosphoinositide-dependent protein kinase 1 (Homo sapiens) (UniProt O15530); conditions: Compound concentration 1000.0 nM
[3] = target: Muscarinic acetylcholine receptor M3 (Homo sapiens) (UniProt P20309); conditions: Compound concentration 10.0 uM
[4] = target: Ribosomal protein S6 kinase alpha-2 (Homo sapiens) (UniProt Q15349); conditions: Compound concentration 1000.0 nM
[5] = target: Serine/threonine-protein kinase TAO3 (Homo sapiens) (UniProt Q9H2K8); conditions: Compound concentration 1000.0 nM
[6] = target: Alpha-2C adrenergic receptor (Homo sapiens) (UniProt P18825); conditions: Compound concentration 10.0 uM
[7] = target: Serine/threonine-protein kinase 32A (Homo sapiens) (UniProt Q8WU08); conditions: Compound concentration 1000.0 nM
[8] = target: Mitotic checkpoint serine/threonine-protein kinase BUB1 (Homo sapiens) (UniProt O43683); conditions: Compound concentration 1000.0 nM
[9] = target: Dual specificity protein kinase CLK2 (Homo sapiens) (UniProt P49760); conditions: Compound concentration 1000.0 nM
[10] = test system: Tyrosine-protein kinase ABL1 (Homo sapiens), P00519 [M351T]; conditions: Compound concentration 1000.0 nM
[11] = test system: Receptor-type tyrosine-protein kinase FLT3 (Homo sapiens), P36888 [UNDEFINED MUTATION]; conditions: Compound concentration 1000.0 nM
[12] = target: Serine/threonine-protein kinase 4 (Homo sapiens) (UniProt Q13043); conditions: Compound concentration 1000.0 nM
[13] = target: Serine/threonine-protein kinase Chk2 (Homo sapiens) (UniProt O96017); conditions: Compound concentration 1000.0 nM
[14] = test system: Mast/stem cell growth factor receptor Kit (Homo sapiens), P10721 [V559D,V654A]; conditions: Compound concentration 1000.0 nM
[15] = target: Mitogen-activated protein kinase 7 (Homo sapiens) (UniProt Q13164); conditions: Compound concentration 1000.0 nM
[16] = test system: Hepatocyte growth factor receptor (Homo sapiens), P08581 [Y1235D]; conditions: Compound concentration 1000.0 nM
[17] = target: 5-hydroxytryptamine receptor 2A (Homo sapiens) (UniProt P28223); conditions: Compound concentration 10.0 uM
[18] = target: cGMP-dependent protein kinase 1 (Homo sapiens) (UniProt Q13976); conditions: Compound concentration 1000.0 nM
[19] = target: Ribosomal protein S6 kinase alpha-5 (Homo sapiens) (UniProt O75582); conditions: Compound concentration 1000.0 nM
[20] = target: Ribosomal protein S6 kinase alpha-3 (Homo sapiens) (UniProt P51812); conditions: Compound concentration 1000.0 nM
[21] = target: LIM domain kinase 1 (Homo sapiens) (UniProt P53667); conditions: Compound concentration 1000.0 nM
[22] = target: Tyrosine-protein kinase ABL1 (Homo sapiens) (UniProt P00519); conditions: Compound concentration 1000.0 nM
[23] = target: Casein kinase I isoform delta (Homo sapiens) (UniProt P48730); conditions: Compound concentration 1000.0 nM
[24] = target: 5-hydroxytryptamine receptor 2B (Homo sapiens) (UniProt P41595); conditions: Compound concentration 10.0 uM
[25] = target: Serine/threonine-protein kinase PAK 6 (Homo sapiens) (UniProt Q9NQU5); conditions: Compound concentration 1000.0 nM
[26] = target: Histamine H4 receptor (Homo sapiens) (UniProt Q9H3N8); conditions: Compound concentration 10.0 uM
[27] = target: Mitogen-activated protein kinase kinase kinase 12 (Homo sapiens) (UniProt Q12852); conditions: Compound concentration 1000.0 nM
[28] = target: Calcium/calmodulin-dependent protein kinase type II subunit alpha (Homo sapiens) (UniProt Q9UQM7); conditions: Compound concentration 1000.0 nM
[29] = target: Serine/threonine-protein kinase MARK2 (Homo sapiens) (UniProt Q7KZI7); conditions: Compound concentration 1000.0 nM
[30] = test system: ALK tyrosine kinase receptor (Homo sapiens), Q9UM73 [C1156Y]; conditions: Compound concentration 1000.0 nM
[31] = target: Aurora kinase A (Homo sapiens) (UniProt O14965); conditions: Compound concentration 1000.0 nM
[32] = test system: Mast/stem cell growth factor receptor Kit (Homo sapiens), P10721 [A829P]; conditions: Compound concentration 1000.0 nM
[33] = target: High affinity nerve growth factor receptor (Homo sapiens) (UniProt P04629); conditions: Compound concentration 1000.0 nM
[34] = target: Tyrosine-protein kinase receptor Tie-1 (Homo sapiens) (UniProt P35590); conditions: Compound concentration 1000.0 nM
[35] = target: Cyclin-dependent kinase 19 (Homo sapiens) (UniProt Q9BWU1); conditions: Compound concentration 1000.0 nM
[36] = target: Serine/threonine-protein kinase N2 (Homo sapiens) (UniProt Q16513); conditions: Compound concentration 1000.0 nM
[37] = target: Ephrin type-B receptor 1 (Homo sapiens) (UniProt P54762); conditions: Compound concentration 1000.0 nM
[38] = target: Myosin-IIIb (Homo sapiens) (UniProt Q8WXR4); conditions: Compound concentration 1000.0 nM
[39] = target: Serine/threonine-protein kinase DCLK3 (Homo sapiens) (UniProt Q9C098); conditions: Compound concentration 1000.0 nM
[40] = target: Beta-2 adrenergic receptor (Homo sapiens) (UniProt P07550); conditions: Compound concentration 10.0 uM
[41] = target: Ephrin type-A receptor 5 (Homo sapiens) (UniProt P54756); conditions: Compound concentration 1000.0 nM
[42] = target: Serine/threonine-protein kinase STK11 (Homo sapiens) (UniProt Q15831); conditions: Compound concentration 1000.0 nM
[43] = target: Platelet-derived growth factor receptor beta (Homo sapiens) (UniProt P09619); conditions: Compound concentration 1000.0 nM
[44] = test system: Tyrosine-protein kinase ABL1 (Homo sapiens), P00519 [E255K]; conditions: Compound concentration 1000.0 nM
[45] = target: Serine/threonine-protein kinase TAO2 (Homo sapiens) (UniProt Q9UL54); conditions: Compound concentration 1000.0 nM

Chain of Platelet-derived growth factor receptor beta (Homo sapiens) (P09619 whole entry): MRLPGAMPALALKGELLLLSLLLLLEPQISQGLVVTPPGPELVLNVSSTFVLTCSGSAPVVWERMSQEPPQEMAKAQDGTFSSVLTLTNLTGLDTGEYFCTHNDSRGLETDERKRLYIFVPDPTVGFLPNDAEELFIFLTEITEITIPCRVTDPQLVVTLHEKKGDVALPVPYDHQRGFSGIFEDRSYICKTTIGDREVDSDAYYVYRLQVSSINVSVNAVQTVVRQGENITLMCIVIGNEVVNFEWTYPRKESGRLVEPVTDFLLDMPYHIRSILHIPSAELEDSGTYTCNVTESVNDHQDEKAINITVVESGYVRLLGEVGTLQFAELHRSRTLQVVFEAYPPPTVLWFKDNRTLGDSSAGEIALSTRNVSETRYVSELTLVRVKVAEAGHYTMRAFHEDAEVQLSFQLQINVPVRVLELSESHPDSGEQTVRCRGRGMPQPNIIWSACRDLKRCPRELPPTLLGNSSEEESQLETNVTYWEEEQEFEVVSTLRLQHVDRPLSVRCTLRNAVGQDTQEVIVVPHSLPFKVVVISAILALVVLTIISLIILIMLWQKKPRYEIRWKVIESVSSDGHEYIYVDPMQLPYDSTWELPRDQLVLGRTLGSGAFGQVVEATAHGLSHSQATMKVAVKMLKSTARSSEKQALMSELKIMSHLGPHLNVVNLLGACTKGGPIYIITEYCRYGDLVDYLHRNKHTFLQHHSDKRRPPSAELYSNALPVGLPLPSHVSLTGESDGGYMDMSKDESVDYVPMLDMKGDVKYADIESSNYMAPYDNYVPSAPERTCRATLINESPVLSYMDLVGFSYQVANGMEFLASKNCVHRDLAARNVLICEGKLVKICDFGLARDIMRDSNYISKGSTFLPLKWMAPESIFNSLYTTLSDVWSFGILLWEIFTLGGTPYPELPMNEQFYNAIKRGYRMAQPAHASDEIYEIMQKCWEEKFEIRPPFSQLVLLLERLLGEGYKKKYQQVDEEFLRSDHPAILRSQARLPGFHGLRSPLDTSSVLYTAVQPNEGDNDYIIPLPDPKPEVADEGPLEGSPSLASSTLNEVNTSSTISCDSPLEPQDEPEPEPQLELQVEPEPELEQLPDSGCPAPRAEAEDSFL
Chain of Aurora kinase A (Homo sapiens) (O14965 whole entry): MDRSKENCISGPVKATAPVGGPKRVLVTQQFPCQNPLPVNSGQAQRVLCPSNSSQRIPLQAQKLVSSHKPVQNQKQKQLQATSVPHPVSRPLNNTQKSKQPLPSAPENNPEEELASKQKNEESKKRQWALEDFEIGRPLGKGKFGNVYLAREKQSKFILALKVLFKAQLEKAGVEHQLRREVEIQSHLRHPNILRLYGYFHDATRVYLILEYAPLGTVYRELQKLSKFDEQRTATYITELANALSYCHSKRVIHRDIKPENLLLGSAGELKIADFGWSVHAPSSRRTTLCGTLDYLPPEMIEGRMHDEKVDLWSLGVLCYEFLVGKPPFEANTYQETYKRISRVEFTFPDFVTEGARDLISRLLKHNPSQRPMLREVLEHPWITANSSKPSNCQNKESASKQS
Chain of Receptor-type tyrosine-protein kinase FLT3 (Homo sapiens), P36888 [UNDEFINED MUTATION] (P36888 whole entry, looked up, change not shown): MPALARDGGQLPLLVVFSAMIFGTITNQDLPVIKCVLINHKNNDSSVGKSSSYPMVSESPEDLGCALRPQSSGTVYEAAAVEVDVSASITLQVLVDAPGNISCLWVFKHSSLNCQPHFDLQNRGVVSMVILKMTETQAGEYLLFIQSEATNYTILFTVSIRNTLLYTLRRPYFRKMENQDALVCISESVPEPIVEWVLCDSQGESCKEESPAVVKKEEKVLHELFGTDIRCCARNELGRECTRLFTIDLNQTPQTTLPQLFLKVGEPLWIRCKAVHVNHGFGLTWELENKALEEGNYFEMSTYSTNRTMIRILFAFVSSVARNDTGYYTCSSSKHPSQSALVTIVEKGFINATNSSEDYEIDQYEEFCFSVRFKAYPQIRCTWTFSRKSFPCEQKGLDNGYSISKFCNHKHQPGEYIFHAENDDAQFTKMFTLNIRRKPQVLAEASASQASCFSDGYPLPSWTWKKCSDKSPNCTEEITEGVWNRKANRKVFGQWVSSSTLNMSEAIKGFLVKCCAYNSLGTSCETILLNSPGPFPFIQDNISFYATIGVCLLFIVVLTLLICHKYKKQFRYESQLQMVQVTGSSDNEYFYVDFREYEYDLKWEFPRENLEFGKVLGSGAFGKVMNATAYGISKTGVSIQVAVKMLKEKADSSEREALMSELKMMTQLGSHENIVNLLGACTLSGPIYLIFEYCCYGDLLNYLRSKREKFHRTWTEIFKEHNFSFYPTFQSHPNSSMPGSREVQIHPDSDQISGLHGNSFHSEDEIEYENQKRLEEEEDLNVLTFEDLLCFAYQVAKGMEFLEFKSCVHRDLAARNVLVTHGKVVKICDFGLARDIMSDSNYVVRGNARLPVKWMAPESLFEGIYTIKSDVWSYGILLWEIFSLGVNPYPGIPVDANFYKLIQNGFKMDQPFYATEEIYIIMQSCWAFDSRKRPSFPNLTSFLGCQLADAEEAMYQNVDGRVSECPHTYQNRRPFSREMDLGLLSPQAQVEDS
Chain of Mitogen-activated protein kinase 7 (Homo sapiens) (Q13164 2-816 limits assumed): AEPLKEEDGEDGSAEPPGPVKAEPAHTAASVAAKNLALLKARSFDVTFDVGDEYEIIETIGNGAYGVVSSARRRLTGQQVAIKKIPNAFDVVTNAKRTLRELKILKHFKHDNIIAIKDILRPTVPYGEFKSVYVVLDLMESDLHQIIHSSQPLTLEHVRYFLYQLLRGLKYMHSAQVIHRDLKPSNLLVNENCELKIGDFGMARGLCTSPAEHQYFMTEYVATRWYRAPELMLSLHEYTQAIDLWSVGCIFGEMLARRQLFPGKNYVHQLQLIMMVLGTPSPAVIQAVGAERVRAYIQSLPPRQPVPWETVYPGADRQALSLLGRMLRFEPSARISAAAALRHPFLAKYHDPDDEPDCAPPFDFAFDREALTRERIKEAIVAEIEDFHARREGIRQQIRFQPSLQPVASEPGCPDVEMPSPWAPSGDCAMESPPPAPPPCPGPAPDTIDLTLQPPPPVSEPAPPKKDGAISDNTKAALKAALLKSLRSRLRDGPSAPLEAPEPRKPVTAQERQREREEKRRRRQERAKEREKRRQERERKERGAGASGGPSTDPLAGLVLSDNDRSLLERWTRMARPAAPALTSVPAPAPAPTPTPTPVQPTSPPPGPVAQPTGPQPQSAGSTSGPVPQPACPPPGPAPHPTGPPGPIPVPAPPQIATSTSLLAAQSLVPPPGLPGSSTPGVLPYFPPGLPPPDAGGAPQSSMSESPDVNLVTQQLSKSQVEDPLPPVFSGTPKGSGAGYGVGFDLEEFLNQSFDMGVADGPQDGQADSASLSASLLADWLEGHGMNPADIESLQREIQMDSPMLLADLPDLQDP
Chain of Myosin-IIIb (Homo sapiens) (Q8WXR4 whole entry): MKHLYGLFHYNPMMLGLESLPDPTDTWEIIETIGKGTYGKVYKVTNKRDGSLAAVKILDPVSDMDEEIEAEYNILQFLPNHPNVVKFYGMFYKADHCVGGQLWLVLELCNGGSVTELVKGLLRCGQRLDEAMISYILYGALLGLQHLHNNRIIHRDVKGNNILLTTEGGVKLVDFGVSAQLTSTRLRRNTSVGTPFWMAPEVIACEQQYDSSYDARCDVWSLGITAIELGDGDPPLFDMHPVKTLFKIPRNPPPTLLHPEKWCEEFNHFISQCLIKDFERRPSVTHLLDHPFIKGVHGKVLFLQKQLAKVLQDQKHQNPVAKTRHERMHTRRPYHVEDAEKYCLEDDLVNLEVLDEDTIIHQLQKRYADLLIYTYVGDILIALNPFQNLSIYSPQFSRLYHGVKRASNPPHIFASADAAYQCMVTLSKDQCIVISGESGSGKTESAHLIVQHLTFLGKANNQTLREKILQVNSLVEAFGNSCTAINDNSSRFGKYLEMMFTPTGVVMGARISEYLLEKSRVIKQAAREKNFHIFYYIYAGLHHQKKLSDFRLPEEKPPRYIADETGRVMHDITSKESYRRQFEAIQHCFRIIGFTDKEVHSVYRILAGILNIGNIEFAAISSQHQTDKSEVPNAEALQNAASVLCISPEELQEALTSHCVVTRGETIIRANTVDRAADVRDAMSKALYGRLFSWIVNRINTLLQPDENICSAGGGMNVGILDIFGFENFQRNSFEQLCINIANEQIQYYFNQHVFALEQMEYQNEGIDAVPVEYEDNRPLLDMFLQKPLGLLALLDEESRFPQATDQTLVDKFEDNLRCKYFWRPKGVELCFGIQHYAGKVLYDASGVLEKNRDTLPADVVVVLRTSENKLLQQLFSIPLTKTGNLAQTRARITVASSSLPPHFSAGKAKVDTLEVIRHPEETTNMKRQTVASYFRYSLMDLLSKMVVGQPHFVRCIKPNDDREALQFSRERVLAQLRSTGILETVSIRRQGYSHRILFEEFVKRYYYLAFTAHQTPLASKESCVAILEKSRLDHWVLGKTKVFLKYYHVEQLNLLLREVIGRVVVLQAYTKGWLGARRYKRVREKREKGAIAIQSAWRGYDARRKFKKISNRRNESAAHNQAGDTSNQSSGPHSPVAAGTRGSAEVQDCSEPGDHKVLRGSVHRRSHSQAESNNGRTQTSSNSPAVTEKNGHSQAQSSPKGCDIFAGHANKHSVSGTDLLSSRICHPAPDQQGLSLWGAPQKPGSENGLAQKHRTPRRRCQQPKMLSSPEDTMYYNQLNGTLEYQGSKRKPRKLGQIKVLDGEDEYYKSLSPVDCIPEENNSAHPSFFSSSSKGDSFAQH
Chain of Serine/threonine-protein kinase STK11 (Homo sapiens) (Q15831 whole entry): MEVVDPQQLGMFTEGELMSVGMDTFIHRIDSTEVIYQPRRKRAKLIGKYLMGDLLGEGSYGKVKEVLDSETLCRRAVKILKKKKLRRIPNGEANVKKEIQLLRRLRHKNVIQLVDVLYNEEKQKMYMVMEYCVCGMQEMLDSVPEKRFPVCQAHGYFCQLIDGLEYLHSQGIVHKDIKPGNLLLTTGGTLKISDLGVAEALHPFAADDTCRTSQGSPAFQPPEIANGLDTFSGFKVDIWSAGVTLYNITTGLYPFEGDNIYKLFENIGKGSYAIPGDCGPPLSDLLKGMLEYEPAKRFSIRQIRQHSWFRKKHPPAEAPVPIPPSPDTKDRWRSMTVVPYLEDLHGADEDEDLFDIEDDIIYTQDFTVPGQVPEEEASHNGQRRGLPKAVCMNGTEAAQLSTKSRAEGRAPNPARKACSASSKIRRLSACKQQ

Cc1c(NC(=O)c2cc(C(N)=O)nc3cc(F)ccc23)c(C(F)(F)F)nn1Cc1ccc(C(C)(C)C)cc1 [BAY-588]
active: residual activity [5] 45%
inactive: residual activity [1] 100% | residual activity [2] 94% | inhibition [3] 1.86% | residual activity [4] 100% | inhibition [6] 2.11% | residual activity [7] 100% | residual activity [8] 100% | residual activity [9] 76% | residual activity [10] 100% | residual activity [11] 100% | residual activity [12] 95% | residual activity [13] 99% | residual activity [14] 98% | residual activity [15] 100% | residual activity [16] 84% | inhibition [17] -0.878% | residual activity [18] 99% | residual activity [19] 89% | residual activity [20] 100% | residual activity [21] 100% | residual activity [22] 100% | residual activity [23] 81% | inhibition [24] -8.78% | residual activity [25] 100% | inhibition [26] 13% | residual activity [27] 100% | residual activity [28] 89% | residual activity [29] 100% | residual activity [30] 100% | residual activity [31] 100% | residual activity [32] 98% | residual activity [33] 89% | residual activity [34] 100% | residual activity [35] 100% | residual activity [36] 100% | residual activity [37] 86% | residual activity [38] 100% | residual activity [39] 100% | inhibition [40] 24.1% | residual activity [41] 74% | residual activity [42] 100% | residual activity [43] 76% | residual activity [44] 100% | residual activity [45] 100%

Cc1c(NC(=O)c2cc(C(N)=O)nc3cc(F)ccc23)c(C(F)(F)F)nn1Cc1ccc(C#N)cc1 [BAY-876]
inactive: residual activity [1] 93% | residual activity [2] 73% | inhibition [3] -6.5% | residual activity [4] 86% | residual activity [5] 79% | inhibition [6] -0.745% | residual activity [7] 89% | residual activity [8] 88% | residual activity [9] 89% | residual activity [10] 87% | residual activity [11] 68% | residual activity [12] 84% | residual activity [13] 73% | residual activity [14] 58% | residual activity [15] 95% | residual activity [16] 100% | inhibition [17] 14.3% | residual activity [18] 100% | residual activity [19] 100% | residual activity [20] 87% | residual activity [21] 78% | residual activity [22] 78% | residual activity [23] 76% | inhibition [24] 11.1% | residual activity [25] 100% | inhibition [26] 29% | residual activity [27] 89% | residual activity [28] 100% | residual activity [29] 97% | residual activity [30] 98% | residual activity [31] 89% | residual activity [32] 64% | residual activity [33] 83% | residual activity [34] 81% | residual activity [35] 82% | residual activity [36] 81% | residual activity [37] 66% | residual activity [38] 100% | residual activity [39] 92% | inhibition [40] 21.7% | residual activity [41] 100% | residual activity [42] 100% | residual activity [43] 87% | residual activity [44] 76% | residual activity [45] 85%
